Tests used:
[1] = Dissolution test, USP 27 Type II paddle apparatus; assay type: physicochemical; settings: 900 ml 0.1 N HCl, 37° C., 50 rpm, equivalent to 10 mg active
Experimental: The dissolution media was 900 ml of 0.1 N HCl, and was de-aerated with helium for approximately 15 minutes before each dissolution test. In all cases where not otherwise specified, the equivalent to 10 mg of the active ingredient was added to each dissolution vessel.

[2] = Solubilization of ITZ by the carrier during hot-melt extrusion at 100° C. (DSC, SEM); settings: extruded at 100° C., confirmed by SEM and DSC
Experimental: A Randcastle Microtruder RCP-0750 hot-melt extruder equipped with a 6 mm round die was operated at 15 RPM, 0.2-0.3 Drive Amps with an Extrusion Temperature of 100° C. to prepare the composition. All powders were blended in a v-shell blender prior to extrusion. Temperature zones were set as follows: zone 1: 90° C., zone 2: 95° C., zone 3: 100° C., die temperature 100° C. The powder blend was placed in a hopper that is located at the head of a vertical screw such that the material is flood fed by gravity. The residence time of the material in the extruder was approximately three minutes. The extrudate was sheared into approximately one foot sections after exiting the die and placed on an aluminum sheets and allowed to cool at ambient conditions.
The fine drug-containing particles and compositions containing them were analyzed by scanning electron microscopy using a Hitachi S-4500 scanning electron microscope. Samples were coated with Au/Pd and an accelerating voltage of 5 kV was used.
Changes in the degree of crystallization of the fine drug-containing particles, either neat or dispersed within a hot-melt extruded composition, were determined and quantified by differential scanning calorimetry. A TA Instruments Model 2920 calorimeter was used to conduct the analyses.

SMILES: CCC(C)n1ncn(-c2ccc(N3CCN(c4ccc(OCC5COC(Cn6cncn6)(c6ccc(Cl)cc6Cl)O5)cc4)CC3)cc2)c1=O (centres unmarked) [bulk ITZ, itraconazole]
- ITZ drug release (dissolved) in 10 minutes (FIG. 12) [1]: less than 1%
- Solubility of itraconazole in PEO when extruded [2]: substantially insoluble
